This passage reports EC50 results from US20250145594A1, “MODULATORS OF THE INTEGRATED STRESS PATHWAY” (Calico Life Sciences LLC, priority 2020, published 2025).

This assay concerns ATF4 luciferase reporter in HEK293T cells. In words: ATF4-Luc assay (in vitro model of VWMD). The class given is cell-based, human. The conditions noted are these: Homo sapiens, HEK-293T, 7 h, HEK293T cells carrying the ATF4 luciferase reporter, 1 μg/mL tunicamycin, One Glo luminescence. In outline: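 Tunicamycin (1 μg/mL) stress with co-added compound for 7 hours in HEK293T cells stably carrying an ATF4 5′-UTR–luciferase reporter. EC50 values come from the luminescent signal (One Glo).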
(Reporter assays use an easily measured gene product as a stand-in for the process of interest.)
In the case of `O=C(NC12CC(n3cc(C[C@H]4C[C@H](OC(F)(F)F)C4)cn3)(C1)C2)[C@H]1C[C@@H](O)c2cc(Cl)ccc2O1` [Compound 529, (2R,4R)-6-chloro-4-hydroxy-N-[3-(4-{[(1r,3S)-3-(trifluoromethoxy)cyclobutyl]methyl}-1H-pyrazol-1-yl)bicyclo[1.1.1]pentan-1-yl]-3,4-dihydro-2H-1-benzopyran-2-carboxamide], the EC50 – broadly, the concentration giving half of the maximal effect – fell in the range of 10 to 50 nM. In the case of `O=C(NC12CC(n3cc(C[C@H]4C[C@H](OC(F)(F)F)C4)cn3)(C1)C2)[C@H]1C[C@@H](O)c2cc(Cl)c(F)cc2O1` [Compound 530, (2R,4R)-6-chloro-7-fluoro-4-hydroxy-N-[3-(4-{[(1r,3S)-3-(trifluoromethoxy)cyclobutyl]methyl}-1H-pyrazol-1-yl)bicyclo[1.1.1]pentan-1-yl]-3,4-dihydro-2H-1-benzopyran-2-carboxamide], the EC50 was in the range of 10 to 50 nM. Take `O=C(NC12CC(n3cc(C[C@H]4C[C@@H](OC(F)(F)F)C4)cn3)(C1)C2)[C@H]1C[C@@H](O)c2cc(Cl)ccc2O1` [Compound 531, (2R,4R)-6-chloro-4-hydroxy-N-[3-(4-{[(1s,3R)-3-(trifluoromethoxy)cyclobutyl]methyl}-1H-pyrazol-1-yl)bicyclo[1.1.1]pentan-1-yl]-3,4-dihydro-2H-1-benzopyran-2-carboxamide]: the EC50 is 10 to 50 nM. Regarding `O=C(NC12CC(n3cc(C[C@H]4C[C@@H](OC(F)(F)F)C4)cn3)(C1)C2)[C@H]1C[C@@H](O)c2cc(Cl)c(F)cc2O1` [Compound 532, (2R,4R)-6-chloro-7-fluoro-4-hydroxy-N-[3-(4-{[(1s,3R)-3-(trifluoromethoxy)cyclobutyl]methyl}-1H-pyrazol-1-yl)bicyclo[1.1.1]pentan-1-yl]-3,4-dihydro-2H-1-benzopyran-2-carboxamide], the EC50 is less than 10 nM.

Take `O=C(NC12CC(c3ccc(C(=O)N4CC(OCC(F)(F)F)C4)nc3)(C1)C2)[C@H]1C[C@@H](O)c2cc(Cl)ccc2O1` [Compound 533, (2R,4R)-6-chloro-4-hydroxy-N-(3-{6-[3-(2,2,2-trifluoroethoxy)azetidine-1-carbonyl]pyridin-3-yl}bicyclo[1.1.1]pentan-1-yl)-3,4-dihydro-2H-1-benzopyran-2-carboxamide]: the EC50 was less than 10 nM. The value for `O=C(NC12CC(c3ccc(C(=O)N4CC[C@H](OC(F)(F)F)C4)cn3)(C1)C2)[C@H]1C[C@@H](O)c2cc(Cl)ccc2O1` [Compound 534, (2R,4R)-6-chloro-4-hydroxy-N-(3-{5-[(3S)-3-(trifluoromethoxy)pyrrolidine-1-carbonyl]pyridin-2-yl}bicyclo[1.1.1]pentan-1-yl)-3,4-dihydro-2H-1-benzopyran-2-carboxamide] was 10 to 50 nM. The value for `O=C(NC12CC(n3cc(C(=O)N4CCC(C(F)(F)F)C4)cn3)(C1)C2)[C@H]1C[C@@H](O)c2cc(Cl)ccc2O1` (stereo partly drawn) [Compound 535, (2R,4R)-6-chloro-4-hydroxy-N-(3-{4-[3-(trifluoromethyl)pyrrolidine-1-carbonyl]-1H-pyrazol-1-yl}bicyclo[1.1.1]pentan-1-yl)-3,4-dihydro-2H-1-benzopyran-2-carboxamide] was 10 to 50 nM; that for `O=C(NC12CC(c3ccc(C(=O)N4CC(OC(F)(F)F)C4)nc3)(C1)C2)[C@H]1C[C@@H](O)c2cc(Cl)ccc2O1` [Compound 536, (2R,4R)-6-chloro-4-hydroxy-N-(3-{6-[3-(trifluoromethoxy)azetidine-1-carbonyl]pyridin-3-yl}bicyclo[1.1.1]pentan-1-yl)-3,4-dihydro-2H-1-benzopyran-2-carboxamide] was less than 10 nM.

For the compound `O=C(NC12CC(c3ccc(C(=O)N4CC(COC(F)(F)F)C4)nc3)(C1)C2)[C@H]1C[C@@H](O)c2cc(Cl)ccc2O1` [Compound 537, (2R,4R)-6-chloro-4-hydroxy-N-[3-(6-{3-[(trifluoromethoxy)methyl]azetidine-1-carbonyl}pyridin-3-yl)bicyclo[1.1.1]pentan-1-yl]-3,4-dihydro-2H-1-benzopyran-2-carboxamide], the EC50 was less than 10 nM. Take `O=C(NC12CC(n3cc(C4CC(COC(F)(F)F)C4)nn3)(C1)C2)[C@H]1C[C@@H](O)c2cc(Cl)ccc2O1` (stereo partly drawn) [Compound 541, (2R,4R)-6-chloro-4-hydroxy-N-[3-(4-{3-[(trifluoromethoxy)methyl]cyclobutyl}-1H-1,2,3-triazol-1-yl)bicyclo[1.1.1]pentan-1-yl]-3,4-dihydro-2H-1-benzopyran-2-carboxamide]: the EC50 was less than 10 nM. To `O=C(NC12CC(n3cc([C@H]4C[C@@H](OC(F)F)C4)nn3)(C1)C2)[C@H]1C[C@@H](O)c2cc(Cl)ccc2O1` [Compound 544, (2R,4R)-6-chloro-N-(3-{4-[(1s,3S)-3-(difluoromethoxy)cyclobutyl]-1H-1,2,3-triazol-1-yl}bicyclo[1.1.1]pentan-1-yl)-4-hydroxy-3,4-dihydro-2H-1-benzopyran-2-carboxamide] belongs less than 10 nM; to `O=C(NC12CC(n3cc(-c4ccc(OC(F)(F)F)cn4)cn3)(C1)C2)[C@H]1C[C@H](O)c2cc(Cl)ccc2O1` [Compound 545, (2R,4S)-6-chloro-4-hydroxy-N-(3-{4-[5-(trifluoromethoxy)pyridin-2-yl]-1H-pyrazol-1-yl}bicyclo[1.1.1]pentan-1-yl)-3,4-dihydro-2H-1-benzopyran-2-carboxamide], less than 10 nM. `O=C(NC12CC(n3cc(-c4ccc(C(F)(F)F)cn4)cn3)(C1)C2)[C@H]1C[C@H](O)c2cc(Cl)ccc2O1` [Compound 546, (2R,4S)-6-chloro-4-hydroxy-N-(3-{4-[5-(trifluoromethyl)pyridin-2-yl]-1H-pyrazol-1-yl}bicyclo[1.1.1]pentan-1-yl)-3,4-dihydro-2H-1-benzopyran-2-carboxamide]: the EC50 is 10 to 50 nM. The value for `O=C(NC12CC(n3cc(-c4ccn(CC(F)(F)F)c4)cn3)(C1)C2)[C@H]1C[C@@H](O)c2cc(Cl)ccc2O1` [Compound 547, (2R,4R)-6-chloro-4-hydroxy-N-(3-{4-[1-(2,2,2-trifluoroethyl)-1H-pyrrol-3-yl]-1H-pyrazol-1-yl}bicyclo[1.1.1]pentan-1-yl)-3,4-dihydro-2H-1-benzopyran-2-carboxamide] was less than 10 nM. As to `O=C(NC12CC(n3cc(-c4ccc(C(F)(F)F)cn4)cn3)(C1)C2)[C@@H]1C[C@@H](O)c2cc(C(F)(F)F)ccc2O1` [Compound 548, (2S,4R)-4-hydroxy-6-(trifluoromethyl)-N-(3-{4-[5-(trifluoromethyl)pyridin-2-yl]-1H-pyrazol-1-yl}bicyclo[1.1.1]pentan-1-yl)-3,4-dihydro-2H-1-benzopyran-2-carboxamide], the EC50 was less than 10 nM. The value for `O=C(NC12CC(n3cc(-c4ccc(C(F)(F)F)cn4)cn3)(C1)C2)[C@H]1C[C@H](O)c2cc(C(F)(F)F)ccc2O1` [Compound 549, (2R,4S)-4-hydroxy-6-(trifluoromethyl)-N-(3-{4-[5-(trifluoromethyl)pyridin-2-yl]-1H-pyrazol-1-yl}bicyclo[1.1.1]pentan-1-yl)-3,4-dihydro-2H-1-benzopyran-2-carboxamide] was less than 10 nM. The value for `O=C(NC12CC(n3cc(-c4ccc(OC(F)(F)F)cn4)cn3)(C1)C2)[C@@H]1C[C@@H](O)c2cc(C(F)(F)F)ccc2O1` [Compound 550, (2S,4R)-4-hydroxy-N-(3-{4-[5-(trifluoromethoxy)pyridin-2-yl]-1H-pyrazol-1-yl}bicyclo[1.1.1]pentan-1-yl)-6-(trifluoromethyl)-3,4-dihydro-2H-1-benzopyran-2-carboxamide] was less than 10 nM. The value for `O=C(NC12CC(n3cc(-c4ccc(OC(F)(F)F)cn4)cn3)(C1)C2)[C@H]1C[C@H](O)c2cc(C(F)(F)F)ccc2O1` [Compound 551, (2R,4S)-4-hydroxy-N-(3-{4-[5-(trifluoromethoxy)pyridin-2-yl]-1H-pyrazol-1-yl}bicyclo[1.1.1]pentan-1-yl)-6-(trifluoromethyl)-3,4-dihydro-2H-1-benzopyran-2-carboxamide] was less than 10 nM; that for `O=C(NC12CC(n3cc(-c4ccc(C(F)(F)F)cn4)cn3)(C1)C2)[C@H]1C[C@@H](O)c2cc(F)c(F)cc2O1` [Compound 553, (2R,4R)-6,7-difluoro-4-hydroxy-N-(3-{4-[5-(trifluoromethyl)pyridin-2-yl]-1H-pyrazol-1-yl}bicyclo[1.1.1]pentan-1-yl)-3,4-dihydro-2H-1-benzopyran-2-carboxamide] was less than 10 nM. On to `Cc1ccc(-c2cnn(C34CC(NC(=O)[C@H]5C[C@@H](O)c6cc(Cl)ccc6O5)(C3)C4)c2)nc1` [Compound 554, (2R,4R)-6-chloro-4-hydroxy-N-{3-[4-(5-methylpyridin-2-yl)-1H-pyrazol-1-yl]bicyclo[1.1.1]pentan-1-yl}-3,4-dihydro-2H-1-benzopyran-2-carboxamide], for which the EC50 is less than 10 nM. `Cc1ccc(-c2cnn(C34CC(NC(=O)[C@H]5C[C@@H](O)c6cc(C(F)(F)F)ccc6O5)(C3)C4)c2)nc1` [Compound 555, (2R,4R)-4-hydroxy-N-{3-[4-(5-methylpyridin-2-yl)-1H-pyrazol-1-yl]bicyclo[1.1.1]pentan-1-yl}-6-(trifluoromethyl)-3,4-dihydro-2H-1-benzopyran-2-carboxamide]: the EC50 is less than 10 nM. The value for `O=C(NC12CC(n3cc(-c4ccn(C(F)(F)F)n4)cn3)(C1)C2)[C@H]1C[C@@H](O)c2cc(Cl)ccc2O1` [Compound 556, (2R,4R)-6-chloro-4-hydroxy-N-{3-[1-(trifluoromethyl)-1H,1′H-[3,4′-bipyrazol]-1′-yl]bicyclo[1.1.1]pentan-1-yl}-3,4-dihydro-2H-1-benzopyran-2-carboxamide] was less than 10 nM; that for `O=C(NC12CC(c3ccnc(-n4cc(C(F)(F)F)cn4)c3)(C1)C2)[C@H]1C[C@@H](O)c2cc(C(F)(F)F)ccc2O1` [Compound 558, (2R,4R)-4-hydroxy-6-(rifluoromethyl)-N-(3-{2-[4-(trifluoromethyl)-1H-pyrazol-1-yl]pyridin-4-yl}bicyclo[1.1.1]pentan-1-yl)-3,4-dihydro-2H-1-benzopyran-2-carboxamide] was 10 to 50 nM.
